Measured values: paper PMC10354055, “An optimized Nurr1 agonist provides disease-modifying effects in Parkinson’s disease models” (Nature Communications, 2023)
Values joined by “and” are separate entries in the source; they are usually repeats but may differ in a detail not shown here. Identical values can stand only once.

What was measured:
MPTP-induced male mice = experiment: IHC of Iba-1+ microglia in STR and SNpc, MPTP-induced mice; format: in vivo, mouse; details: for Iba-1+ cells in STR (% of control): Figure 4m; for Iba-1+ cells in STR (% of control) / Iba-1+ cells in SNpc (% of control): MPTP-induced mice, individual animal values; for Iba-1+ cells in SNpc (% of control): Figure 4n
Experimental: MPTP (Sigma-Aldrich) was intraperitoneally (i.p.) injected (30 mg/kg) for 5 days (Day 1-5). […] To test dyskinetic involuntary behavior, an L-DOPA injected group was included, which received 50 mg/kg of L-DOPA and 15 mg/kg of benserazide (Sigma-Aldrich) (i.p.) for 16 days (Day 1–16). All compounds were administered 6 h post-MPTP injection to avoid any effect of compounds on the MPTP metabolism in the brain. Motor and non-motor related behavior tests were performed on the following days as described in Fig. 4a in an assessor- and observer-blinded fashion. Pre-training and baseline setup for motor-related behaviors were performed 3 days prior to the injections. Mice were sacrificed and subjected to immunohistochemistry. Mice were housed at the Animal Care Facilities of McLean Hospital under a 12-h light/12-h dark cycle, ambient temperature and humidity. Animals were handled in accordance with McLean Hospital’s Institutional Animal Care and Use Committee (Protocol #: 2015N000002) and followed National Institutes of Health guidelines.
Images were acquired using a KEYENCE microscope and quantified as the number or optical density of immunoreactive cells using ImageJ software.
The numbers of TH^+ DA neurons, NeuN^+ neurons, pS129 αSyn^+ cells in the SN and Iba-1^+ microglia in the SN and striatum were stereologically counted in six coronal sections (30 µm thickness) taken every 6th section (180 µm intervals) for each brain. The boundaries of the SN and striatum were delimited at low magnification (4X) to estimate each total area. Immunoreactive cells were counted with images taken at high magnification (×40) by a single blinded investigator. The group mean of the total number of immunoreactive cells from each brain was transformed as percentage of the number in the control group (%). For AAV-αSyn-induced mice, the group mean of the total number of cells in the ipsilateral side was transformed as a percentage of that observed in the contralateral side.

Nurr1-LBD [1] = target: T1, Nurr1-LBD (Mus musculus, UniProt Q06219); experiment: Luciferase reporter assay, Nurr1-LBD, N27-A cells; format: cell-based; details: for EC50: Supplementary Fig. 1d,e
T1 construct: transfected with pCMV-fNurr1, pGAL-Nurr1(LBD), pGAL-Nor1(LBD) or pGAL-Nur77(LBD) and reporter construct; expressed in transfected cells; host or cells: SK-N-BE(2)C (human neuroblastoma), N27-A (rat dopaminergic), MN9D (murine dopaminergic)
T1 sequence (Q06219 360-595 limits assumed): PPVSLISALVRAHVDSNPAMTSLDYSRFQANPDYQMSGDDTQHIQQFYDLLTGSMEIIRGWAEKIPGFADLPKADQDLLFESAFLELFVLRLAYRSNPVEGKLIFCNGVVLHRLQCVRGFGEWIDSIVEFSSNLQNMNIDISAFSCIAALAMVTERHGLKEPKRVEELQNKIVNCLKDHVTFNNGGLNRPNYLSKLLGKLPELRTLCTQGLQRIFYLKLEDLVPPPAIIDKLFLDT
From the text: (§1) Nurr1 transactivity was normalized to β-galactosidase activity.

Nurr1-LBD [2] = target: T1, Nurr1-LBD; experiment: Luciferase reporter assay, Nurr1-LBD, SK-N-BE(2)C cells; format: cell-based; details: for Luciferase activity (fold): Fig. 1d
From the text: as §1

[3] = system: AAV-αSyn-induced male mice; experiment: Rotarod, AAV-αSyn-induced PD model mice; format: in vivo, mouse; details: αSynWT and αSynA53T mice; CQ 40, 4A7C-301 5 mg/kg/day i.p.
From the text: Adeno-associated viruses (AAVs) expressing GFP only or αSyn (wild-type or A53T) were kindly provided by Dr. Yoon Seong Kim from the University of Central Florida. Recombinant AAV vectors were produced using modified pAAV-IRES-hrGFP (Agilent) to express wild-type and mutant human αSyn under control of the CMV promoter. Viral particles (AAV2) were produced at the University of Iowa Viral Vector Core according to standard operating procedures (https://medicine.uiowa.edu/vectorcore/). […] AAV vectors were delivered into the substantia nigra unilaterally by stereotaxic surgery.
Mice were pre-trained on an automated 5-lane rotarod unit (10 rpm, 3 min) for 2 days and the baseline was measured (10 rpm, 90 sec) before the rotarod test (3 days before the MPTP injection or the first rotarod test at week 2). Rotarod measurements were performed using an accelerating protocol, accelerated smoothly from 2 to 30 rpm for 5 min. Time on the rotating rod was measured automatically by placing a trip switch under the floor beneath the rotating drum.

Nurr1-LBD [4] = target: Nurr1-LBD (Homo sapiens, UniProt P43354); experiment: [3H]-CQ radioligand competition binding assay; details: for % of Specific binding / IC50: Fig. 1h; for IC50: competition with [3H]-CQ
Chain of Nurr1-LBD (Homo sapiens, UniProt P43354) (P43354 360-595 limits assumed, species assumed): as the sequence (Q06219 360-595 limits assumed) above
Experimental: Saturation and competition assays were performed as previously described. For saturation assay, 0.2 µM of Nurr1-LBD and 125-10,000 nM of [^3H]-CQ were incubated in binding buffer (20 mM sodium acetate buffer (pH 5.2)) at 4 °C overnight. […] Assay mixtures were applied to GF/B filters (Brandel Inc.) to capture Nurr1-LBD bounded ligands. […] All graphs and IC50 values were generated using the non-linear regression program in GraphPad Prism version 8.0.2.

[5] = Nurr1-LBD and full-length Nurr1, SK-N-BE(2)C cells, Fig. 1d,e
[6] = Nurr1 activation, Supplementary Table 1, values in µM

## CCN(CC)CCCC(C)Nc1ccnc2cc(Cl)ccc12 (stereo not drawn) [CQ, chloroquine]
MPTP-induced male mice
  Iba-1+ cells in STR (% of control): 156.51 % of control and 147.74 % of control and 143.13 % of control and 144.76 % of control and 151.54 % of control and 162.57 % of control and 147.11 % of control and 149.46 % of control
  Iba-1+ cells in SNpc (% of control): 165.17 % of control and 275.28 % of control and 277.25 % of control and 239.89 % of control and 248.74 % of control and 269.38 % of control and 278.23 % of control
Nurr1-LBD [1]
  EC50: ~10 µM
Nurr1-LBD [2]; [5]
  EC50: 50 to 70 µM
Nurr1-LBD [2]; [6]
  EC50: 50.2 µM
[3]
  motor deficits, rotarod (latency to fall) (in words): partial recovery
Nurr1-LBD [4]; competitor conc. 0.0001 (µM)
  % of Specific binding: 118.1264% and 84.3678% and 87.5058%
Nurr1-LBD [4]; competitor conc. 0.001 (µM)
  % of Specific binding: 105.0129% and 88.1206% and 97.7170%
Nurr1-LBD [4]; competitor conc. 0.01 (µM)
  % of Specific binding: 86.0400% and 103.1100% and 99.0600%
Nurr1-LBD [4]; competitor conc. 0.1 (µM)
  % of Specific binding: 92.2329% and 89.2060% and 101.4170%
Nurr1-LBD [4]; competitor conc. 1 (µM)
  % of Specific binding: 91.1049% and 87.6783% and 85.5188%
Nurr1-LBD [4]; competitor conc. 10 (µM)
  % of Specific binding: 73.9055% and 78.9516% and 86.9689%
Nurr1-LBD [4]; competitor conc. 100 (µM)
  % of Specific binding: 60.9070% and 71.4020% and 69.8520%
Nurr1-LBD [4]; competitor conc. 1000 (µM)
  % of Specific binding: 61.7083% and 49.9850% and 61.0054%
Nurr1-LBD [4]; competitor conc. 10000 (µM)
  % of Specific binding: 29.9520% and 33.4512% and 36.5796%
Nurr1-LBD [4]; competitor conc. 100000 (µM)
  % of Specific binding: 19.5396% and 23.9835% and 21.7371%
Nurr1-LBD [4]; competitor conc. 1000000 (µM)
  % of Specific binding: 14.1307% and 7.3236% and 10.4343%
Nurr1-LBD [4]
  IC50: 1.03 µM and 1 µM

## CCN1CCN(c2cc(N3CCN(CC)CC3)nc(NCCNc3ccnc4cc(Cl)ccc34)n2)CC1 [4A7C-301, N^1-(4,6-bis(4-ethylpiperazin-1-yl)pyrimidin-2-yl)-N^2-(7-chloroquinolin-4-yl)ethane-1,2-diamine]
MPTP-induced male mice
  Iba-1+ cells in STR (% of control): 125.5 % of control and 139.6 % of control and 120.61 % of control and 117.09 % of control and 138.52 % of control and 80.29 % of control and 135.9 % of control
  Iba-1+ cells in SNpc (% of control): 160.25 % of control and 167.13 % of control and 152.39 % of control and 127.81 % of control and 217.28 % of control and 189.75 % of control and 198.6 % of control
MPTP-induced male mice; MPTP mice
  Iba-1+ microglia in STR and SN (in words): markedly reduced
Nurr1-LBD [1]
  potency relative to CQ: approximately 50 times
  EC50: ~0.2 µM
Nurr1-LBD [2]; Fig. 1f, CQ 100 µM, 4A7C-301 20 µM
  Luciferase activity (fold), Nurr1: 16.1033 fold and 17.0687 fold and 15.1126 fold
Nurr1-LBD [2]; 0.1 µM
  Luciferase activity (fold): 1.566 fold and 1.556 fold and 1.583 fold
Nurr1-LBD [2]; 1 µM
  Luciferase activity (fold): 2.853 fold and 2.913 fold and 2.848 fold
Nurr1-LBD [2]; 10 µM
  Luciferase activity (fold): 8.938 fold and 9.512 fold and 11.2109 fold
Nurr1-LBD [2]; 20 µM
  Luciferase activity (fold): 17.8435 fold and 18.5652 fold and 17.952 fold
Nurr1-LBD [2]; [5]
  EC50: 7 to 8 µM
Nurr1-LBD [2]; Nurr1 activation, Supplementary Table 1
  Maximum fold activity: 18.12 ± 3.02 fold and 18.12 fold
Nurr1-LBD [2]; [6]
  EC50: 6.53 µM
[3]
  motor deficits, rotarod (latency to fall) (in words): improved motor deficits
Nurr1-LBD [4]; competitor conc. 0.0001 (µM)
  % of Specific binding: 97.5500% and 87.3600% and 114.0900%
Nurr1-LBD [4]; competitor conc. 0.001 (µM)
  % of Specific binding: 93.3315% and 98.5361% and 111.1323%
Nurr1-LBD [4]; competitor conc. 0.01 (µM)
  % of Specific binding: 98.5241% and 100.1201% and 98.1018%
Nurr1-LBD [4]; competitor conc. 0.1 (µM)
  % of Specific binding: 94.8655% and 104.0393% and 99.1513%
Nurr1-LBD [4]; competitor conc. 1 (µM)
  % of Specific binding: 96.7105% and 99.4183% and 101.5113%
Nurr1-LBD [4]; competitor conc. 10 (µM)
  % of Specific binding: 93.5241% and 103.1201% and 98.1018%
Nurr1-LBD [4]; competitor conc. 100 (µM)
  % of Specific binding: 102.0642% and 94.9839% and 98.3253%
Nurr1-LBD [4]; competitor conc. 1000 (µM)
  % of Specific binding: 95.6857% and 99.8470% and 98.1514%
Nurr1-LBD [4]; competitor conc. 10000 (µM)
  % of Specific binding: 97.6484% and 92.6051% and 102.8033%
Nurr1-LBD [4]; competitor conc. 100000 (µM)
  % of Specific binding: 94.7542% and 97.7292% and 100.6669%
Nurr1-LBD [4]; competitor conc. 1000000 (µM)
  % of Specific binding: 94.8500% and 98.0088% and 99.1887%
Nurr1-LBD [4]
  IC50: 0.0482 µM and 0.05 µM
Nurr1-LBD [4]; from radioligand and TR-FRET IC50s
  binding affinity for Nurr1-LBD relative to CQ: 20 fold and ~ 20 fold
